Test results reported in patent US20220397573A1, “Biomolecular Detection Device” (Hoffmann-La Roche Inc., priority 2019, published 2022).

System: off-target adenosine receptors
Assay: Cross-sensitivity test: stimulation of off-target receptors in HEK293 cells on the biomolecular detection device
Assay type: cell-based
Details: 5 μM NECA, FIG. 6a
Method: SNAP-β2AR cells were grown to 60-80% confluency in T25 culture flasks, washed twice with warm phosphate-buffered saline (PBS), incubated with 1× Versene for 5 min and resuspended in cell culture medium. In order to decrease baseline signal contributions from non-functional cellular debris, the cells were centrifuged at 50 rpm for 1 min and resuspended in culture media two times sequentially. The cells were seeded to reach confluency on the waveguide in an incubation chamber containing 500 μl cell culture media. Cells were only seeded when viability exceeded 90%, as determined by a Countess automated cell counter (Invitrogen). Except for the real-time establishment of the transmembrane nanopattern, seeded cells were kept in a CO2 incubator at 37° C. for 2 h to allow cells adherence to the sensor chip (and covalent interaction of the SNAP-tag on the β2AR with the SNAP-tag substrate on the chip). The incubation chamber containing the cells was then washed twice with warm HBSS buffer (supplemented with 20 mM HEPES, pH 7.4) adjusted for DMSO and transferred to a modified F3000 ZeptoReader (Zeptosens) which was kept at 35° C. […] For all assays, the signal was monitored for 7 min (baseline measurement) before careful substitution of the buffer with buffer containing the β2AR ligand and monitored for another 21 min thereafter. […]

CCNC(=O)[C@H]1O[C@@H](n2cnc3c(N)ncnc32)[C@H](O)[C@@H]1O [NECA]
signal (mass increase at the receptor relative to the initial mass) upon off-target stimulation: no significant signal change
